# Measured values reported in US20160137639A1, “TRIAZOLE-ISOXAZOLE COMPOUND AND MEDICAL USE THEREOF” (JAPAN TOBACCO INC., priority 2012, published 2016).
# Where two headings read alike, the source gives them in different places.
# Legend:
# mouse RORγ = target: T1, mouse RORγ (Mus musculus, UniProt P51450); assay: Luciferase reporter gene assay of inhibitory effect against RORγ transcriptional activity (GAL4-mRORγ plasmid in CHO cells); assay type: cell-based
# T1 construct: mouse, NM_011281.2 and from Ile251 to Lys516; expressed in transfected cells; host or cells: CHO cells (transient co-transfection with pG5-Luc reporter)
# T1 sequence (P51450 251-516): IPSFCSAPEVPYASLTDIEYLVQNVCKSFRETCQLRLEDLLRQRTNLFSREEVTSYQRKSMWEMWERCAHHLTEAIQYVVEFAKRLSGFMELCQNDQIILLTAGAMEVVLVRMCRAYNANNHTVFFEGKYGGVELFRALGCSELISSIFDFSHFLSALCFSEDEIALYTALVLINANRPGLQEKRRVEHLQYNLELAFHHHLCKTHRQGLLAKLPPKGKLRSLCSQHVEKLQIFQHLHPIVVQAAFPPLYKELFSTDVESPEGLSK
# Procedure, shortened: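 Readout is intracellular luciferase after 2-day compound exposure (8 concentrations, 0.1% DMSO) in CHO cells expressing GAL4 fused to mouse RORγ LBD residues Ile251–Lys516 plus pG5-Luc reporter. EC50 fitted from %-of-control; points showing resazurin-detected cytotoxicity dropped.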
# human RORγ = target: T2, human RORγ (Homo sapiens, UniProt P51449); assay: Luciferase reporter gene assay of inhibitory effect against RORγ transcriptional activity (GAL4-hRORγ plasmid in CHO cells); assay type: cell-based
# T2 construct: human, NM_005060.3 and from Ser253 to Lys518; expressed in transfected cells; host or cells: CHO cells (transient co-transfection with pG5-Luc reporter)
# T2 sequence (P51449 253-518): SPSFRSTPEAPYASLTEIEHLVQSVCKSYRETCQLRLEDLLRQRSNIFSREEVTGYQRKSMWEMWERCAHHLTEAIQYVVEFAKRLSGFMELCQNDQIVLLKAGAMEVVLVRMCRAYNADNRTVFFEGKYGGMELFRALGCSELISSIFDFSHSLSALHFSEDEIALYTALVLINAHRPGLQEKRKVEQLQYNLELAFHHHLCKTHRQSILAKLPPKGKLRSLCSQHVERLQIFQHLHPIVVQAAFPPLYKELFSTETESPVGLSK
Structure (SMILES),EC50 (mouse RORγ; read-out: LUC EC50 mRORg),EC50 (human RORγ; read-out: LUC EC50 hRORg),EC50 (mouse RORγ; read-out: LUC EC50 (μM) mRORg),EC50 (human RORγ; read-out: LUC EC50 (μM) hRORg)
Cc1ccc(NC(=O)C[C@H](CC(C)C)c2nnc(-c3cc(CC(C)C)no3)n2C2CC2)c(C)c1 [Example F-591],< 3 µM,< 3 µM,–,–
Cc1ccc(NC(=O)C[C@H](CCC(=O)O)c2noc(-c3cc(C(C)(C)C(F)(F)F)on3)c2C2CC2)c(Cl)c1 [Example E-54],–,–,< 3 µM,< 3 µM
COc1c(CNC(=O)CCc2nnc(CCC(C)C)n2C2CC2)ccc(C)c1C [Example F-262],–,–,> 3 µM,> 3 µM
CCOC(=O)CCc1nnc(CCC(=O)Nc2cccc(Cl)c2C)n1C1CC1 [Example F-183],–,–,> 3 µM,> 3 µM
Cc1ccc(NC(=O)C(C)C(CCOCc2ccccc2)c2nnc([C@H]3C[C@@H](CC(C)C)C3)n2C2CC2)c(C)c1 (some centres unmarked) [Example F-489],–,–,< 3 µM,> 3 µM
Cc1ccc(NC(=O)CC(CCC(=O)O)c2nnc(CCCC(C)C)n2C2CC2)c(C)c1 (racemic) [Example F-283],–,–,> 3 µM,> 3 µM
Cc1ncc(NC(=O)C[C@H](CCC(=O)O)c2noc([C@H]3C[C@@H](CC(C)(C)C)C3)c2C2CC2)c(C)n1 [Example F-674],< 3 µM,< 3 µM,–,–
COC(=O)C(C)(C)CCCc1nnc(CCC(=O)Nc2cccc(Cl)c2C)n1C1CC1 [Example F-230],–,–,< 3 µM,< 3 µM
CNC(=O)CC(CC(=O)Nc1ccc(C)cc1C)c1nnc(CCCC(C)C)n1C1CC1 (racemic) [Example F-265],–,–,< 3 µM,> 3 µM
CC(C)n1c(CCC(=O)Nc2cccc3ccccc23)nnc1C1Cc2ccccc2C1 [Example F-6],–,–,> 3 µM,> 3 µM
Cc1c(Cl)cccc1NC(=O)CCc1nnc(CCC(=O)N(C)C)n1C1CC1 [Example F-184],–,–,> 3 µM,> 3 µM
Cc1ccc(NC(=O)C[C@H](CCC(=O)O)c2noc(-c3cc(CC(C)C)on3)c2C2CC2)c(Cl)c1 [Example E-01],–,–,< 3 µM,< 3 µM
Cc1ccc(NC(=O)C[C@H](CCCO)c2noc([C@H]3C[C@@H](CC(C)(C)C)C3)c2C2CC2)c(C)n1 [Example F-689],< 3 µM,< 3 µM,–,–
Cc1ccc(NC(=O)C[C@H](CC(C)C)c2nnc(-c3cc(CCC(C)C)on3)n2C2CC2)c(C)c1 [Example F-627],< 3 µM,< 3 µM,–,–
Cc1ccc(NC(=O)CC(Cc2ncco2)c2nnc([C@H]3C[C@@H](CC(C)C)C3)n2C2CC2)c(C)c1 (mixture of isomers) [Example F-454],–,–,< 3 µM,< 3 µM
C#CCC(CC(=O)Nc1ccc(C)cc1C)c1nnc(CCCC(C)(C)C)n1C1CC1 (racemic) [Example F-437],–,–,< 3 µM,< 3 µM
CC(=O)N1C[C@H](C(=O)Nc2ccc(C)cc2C)[C@@H](c2nnc(C3CN(C(=O)CC(C)(C)C)C3)n2C2CC2)C1 (racemic) [Example F-417],–,–,> 3 µM,> 3 µM
Cc1ccc(NC(=O)C[C@H](CCC(=O)O)c2noc(-c3cc(C(F)(F)C4CCCC4)on3)c2C2CC2)c(Cl)c1 [Example E-39],–,–,< 3 µM,< 3 µM
Cc1ccc(NC(=O)C[C@@H](CCO)c2noc([C@H]3C[C@@H](CC(C)C)C3)c2C2CC2)c(C)c1 [Example F-579],< 3 µM,< 3 µM,–,–
Cc1c(Cl)cccc1NC(=O)CC(CCCOCc1ccccc1)c1nnc(CCC(C)C)n1C1CC1 (racemic) [Example F-195],–,–,< 3 µM,< 3 µM
CC(=O)N1C[C@@H](C(=O)Nc2ccc(C)cc2C)[C@H](c2nnc(CCCC(C)(C)C)n2CC(F)(F)F)C1 [Example F-393],–,–,> 3 µM,> 3 µM
CCCc1ccc(C)c(NC(=O)CCc2nnc(CCC(C)C)n2C2CC2)c1 [Example F-153],–,–,> 3 µM,> 3 µM
Cc1ccc(NC(=O)C[C@H](CCC(=O)O)c2noc(-c3nnc(CC(C)C)s3)c2C2CC2)c(Cl)c1 [Example E-14],–,–,< 3 µM,< 3 µM
Cc1ccc(NC(=O)C[C@@H](CC#N)c2nnc([C@H]3C[C@@H](CC(C)C)C3)n2C2CC2)c(C)c1 [Example F-464],–,–,< 3 µM,> 3 µM
CCn1c(CCC(=O)Nc2cc(C)cc(C)c2)nnc1CCC1CCCC1 [Example F-49],–,–,> 3 µM,> 3 µM
Cc1cc(O)ccc1CNC(=O)CCc1nnc(CCC(C)C)n1C1CC1 [Example F-114],–,–,> 3 µM,> 3 µM

Structure (SMILES),EC50 (mouse RORγ; read-out: LUC EC50 mRORg),EC50 (human RORγ; read-out: LUC EC50 hRORg),EC50 (mouse RORγ; read-out: LUC EC50 (μM) mRORg),EC50 (human RORγ; read-out: LUC EC50 (μM) hRORg)
Cc1ccc(NC(=O)CC(c2nnc(CCCC(C)(C)C)n2C2CC2)C(C)C)c(C)c1 (racemic) [Example F-453],–,–,< 3 µM,< 3 µM
Cc1cc(CO)ccc1NC(=O)CCc1nnc(CCC(C)C)n1C1CC1 [Example F-88],–,–,> 3 µM,> 3 µM
CCn1c(CCC(=O)Nc2cc(Cl)cc(Cl)c2)nnc1C1Cc2ccccc2C1 [Example F-29],–,–,> 3 µM,> 3 µM
Cc1ccc(NC(=O)[C@H]2C[C@@H](O)C[C@@H]2c2nnc([C@H]3C[C@@H](CC(C)C)C3)n2C2CC2)c(C)c1 [Example F-470],–,–,< 3 µM,< 3 µM
CCC(C)(C)C[C@H]1C[C@@H](c2onc([C@@H](CCC(=O)O)CC(=O)Nc3ccc(C)nc3C)c2C(F)(F)F)C1 [Example F-697],< 3 µM,< 3 µM,–,–
CC1(c2cc(-c3onc([C@@H](CCC(=O)O)CC(=O)Nc4ccc(Cl)cc4F)c3C3CC3)no2)CCCC1 [Example E-71],–,–,< 3 µM,< 3 µM
"Cc1ccc(NC(=O)C(C)C(CCO)c2nnc([C@H]3C[C@@H](CC(C)C)C3)n2C2CC2)c(C)c1 (single isomer, unassigned) [Example F-493]",–,–,< 3 µM,< 3 µM
Cc1cc(F)ccc1NC(=O)C[C@H](CCO)c1nnc([C@H]2C[C@@H](CC(F)(F)F)C2)n1C1CC1 [Example F-588],< 3 µM,> 3 µM,–,–
Cc1ccc(NC(=O)C[C@H](CCCC(=O)O)c2noc(-c3cc(CCC(C)C)on3)c2C2CC2)c(Cl)c1 [Example E-21],–,–,< 3 µM,< 3 µM
COc1cc(F)ccc1CNC(=O)CCc1nnc(CCC(C)C)n1C1CC1 [Example F-229],–,–,> 3 µM,> 3 µM
CC(F)(F)c1c([C@@H](CCC(=O)O)CC(=O)Nc2ccc(Cl)cc2F)noc1-c1cc(C(F)(F)C(C)(C)C)on1 [Example E-66],–,–,< 3 µM,< 3 µM
"Cc1ccc(NC(=O)CCc2nnc(C3(O)CC(CC(C)C)C3)n2C2CC2)c(C)c1 (single isomer, unassigned) [Example F-429]",–,–,< 3 µM,< 3 µM
Cc1ccc(NC(=O)[C@H]2CC(F)(F)C[C@@H]2c2nnc([C@H]3C[C@@H](CC(C)C)C3)n2C2CC2)c(C)c1 [Example F-571],< 3 µM,< 3 µM,–,–
CCn1c(CCC(=O)Nc2ccc(C)cc2C)nnc1CCC(C)(C)C [Example F-47],–,–,< 3 µM,> 3 µM
Cc1ccc(CNC(=O)CCc2nnc(CCC(C)C)n2C2CC2)c(C)c1 [Example F-119],–,–,< 3 µM,< 3 µM
CC(=O)N1C[C@H](C(=O)Nc2ccc(Cl)cc2C)[C@@H](c2nnc(-c3cc(CC(C)C)on3)n2C2CC2)C1 [Example F-613],< 3 µM,< 3 µM,–,–
Cc1ccc(C)c(NC(=O)CCc2nnc(CCC(C)C)n2C2CC2)c1 [Example F-71],–,–,> 3 µM,> 3 µM
Cc1ccc(NC(=O)[C@H]2CCCN[C@@H]2c2nnc(CCCC(C)(C)C)n2C2CC2)c(C)c1 [Example F-309],–,–,< 3 µM,< 3 µM
Cc1cccc(O)c1NC(=O)CCc1nnc(CCC(C)C)n1C1CC1 [Example F-104],–,–,> 3 µM,> 3 µM
CC(=O)N1C[C@H](C(=O)Nc2ccc(C)cc2C)[C@@H](c2nnc([C@H]3C[C@H](OC(C)C)C3)n2C2CC2)C1 [Example F-334],–,–,< 3 µM,< 3 µM
Cc1c(F)ccc(NC(=O)C[C@H](CCO)c2nnc(-c3cc(CC(C)C)on3)n2C2CC2)c1C [Example F-661],< 3 µM,< 3 µM,–,–
Cc1cccc(CNC(=O)CCc2nnc(CCC(C)C)n2C2CC2)c1 [Example F-60],–,–,> 3 µM,> 3 µM
CC(C)C[C@H]1C[C@@H](c2nnc([C@@H](CCO)CC(=O)Nc3ccc(C(F)(F)F)cc3C(F)(F)F)n2C2CC2)C1 [Example F-524],< 3 µM,< 3 µM,–,–
CC(=O)N1C[C@H](C(=O)Nc2ccc(C)cc2C)[C@@H](c2nnc(CCC3CCCCC3)n2C2CC2)C1 [Example F-374],–,–,< 3 µM,< 3 µM
COc1c(C)ccc(NC(=O)C[C@H](CCCO)c2noc([C@H]3C[C@@H](CC(C)(C)C)C3)c2C2CC2)c1C [Example F-696],< 3 µM,< 3 µM,–,–
CCC(CC)C[C@H]1C[C@H](c2nnc(CCC(=O)Nc3ccc(C)cc3C)n2C2CC2)C1 [Example F-495],–,–,< 3 µM,< 3 µM
